# Test results reported in PMC8767159, “Multiparameter Optimization of Trypanocidal Cruzain Inhibitors With In Vivo Activity and Favorable Pharmacokinetics” (Frontiers in Pharmacology, 2022).
# Where two headings read alike, the source gives them in different places.
# How the values were obtained:
# [1] = In vivo pharmacokinetics in male CD1 mice; design: species or system mouse; conditions: for bioavailability / C0 / AUC / half-life / Vd / Cmax / Tmax: plasma; for bioavailability: oral bioavailability; for clearance: plasma clearance, read-out: CLp (L/h/kg) IV (converted)
# Procedure: The in vivo pharmacokinetic profiles of the compounds were determined using male CD1 mice weighing […] ([Davies and Morris, 1993]; [Liu and Jia, 2007]). The compounds were administered in a single dose orally (0.5 mg/kg) and intravenously (0.5 mg/kg). Stock solutions of the compounds in DMSO were diluted in Tween 80, PEG-400, and D5W (5% dextrose in water) at a ratio of 2:5:20:73 (v/v). The injection volume was 10 ml/kg. The remaining plasma concentration was monitored over time by LC-MS/MS by collecting blood samples (40 μl) at 10, 25, and 50 min and 1, 3, 6, 9, 12, and 24 h after administration of the compound.
# For the biotransformation experiments and analysis of metabolites in microsomes, an Ultra-High-Pressure Liquid Chromatography instrument (UHPLC, Thermo Accela, Waltham, MA) ([Spaggiari et al., 2014]) connected to an automatic sample injector and a 1250 series pump was used. The UHPLC system was connected to a Thermo Fisher (Waltham, MA) LTQ Orbitrap mass spectrometer. For all other analyses, an AB Sciex Triple Quad 5500 coupled to a UHPLC equipped with a UV 1290 diode detector (Agilent Technologies, Santa Clara, CA) and a CTC PAL self-collecting system (LEAP Technologies, Carrboro, NC) was used. Q1 MS positive ion mode (300–500 Da) was used to detect the ions of the parent compounds. The UV detector was operated in spectral mode (250–280 nm). A Hypersil Gold C18 (2.1 mm × 100 mm, 1.9 µm, Thermo Fisher) HPLC column was used. The mobile phases were solvent A (0.1% formic acid in water) and solvent B (0.1% formic acid in ACN). The flow was adjusted to 0.55 ml/min, and the injection volume was adjusted to […]. The gradient started with 1% solvent B for 0.4 min, reached 40% (solvent B) in 2.3 min and 95% (solvent B) in 0.67 min, was maintained for 0.5 min, and returned to the initial condition of 1%. This condition was maintained for 1 min before injection of the next sample. The peak area ratio (peak area of the test compounds/peak area of the control compounds) was converted to the percentage of remaining compound, with the 0 min time point ratio set to 100%. T½ and CLint were calculated from the percentage of remaining compound versus the incubation time. From the resulting function, the slope (k) was determined. The equations T1/2 (min) = ln(2)/k and CLint in vitro (μL/min/mg) = k*1000/0.25 were used to determine T½ and CLint.
# [2] = molecular target: rhodesain (Trypanosoma brucei rhodesiense, UniProt Q95PM0); assay: Rhodesain fluorescence-based inhibition assay (Z-FR-AMC); type: biochemical; conditions: Table S3; compound 100 µM
# Sequence of rhodesain (Q95PM0 entry or part of it): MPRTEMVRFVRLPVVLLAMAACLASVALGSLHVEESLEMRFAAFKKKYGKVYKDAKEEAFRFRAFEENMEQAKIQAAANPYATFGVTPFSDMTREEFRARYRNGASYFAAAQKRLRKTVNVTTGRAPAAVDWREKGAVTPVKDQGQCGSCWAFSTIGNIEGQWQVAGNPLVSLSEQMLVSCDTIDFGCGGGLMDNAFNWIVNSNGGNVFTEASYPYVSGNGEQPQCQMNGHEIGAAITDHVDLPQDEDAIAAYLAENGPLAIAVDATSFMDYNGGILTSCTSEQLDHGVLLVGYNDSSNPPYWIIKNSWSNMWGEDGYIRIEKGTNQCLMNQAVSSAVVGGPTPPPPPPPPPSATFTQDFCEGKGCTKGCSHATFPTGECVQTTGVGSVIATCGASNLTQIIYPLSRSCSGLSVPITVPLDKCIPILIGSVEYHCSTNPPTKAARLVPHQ
# Procedure: Rhodesain activity was measured using a fluorescence-based assay as previously described ([Fonseca et al., 2015]). The cleavage rates of the fluorogenic substrate Z-Phe-Arg-aminomethyl coumarin (Z-FR-AMC) were monitored at wavelengths of 340 nm for excitation and 440 nm for emission. All assays were performed in triplicate in a 0.1 M sodium acetate buffer, pH 5.5, with 1 mM beta-mercaptoethanol and 0.01% Triton X-100. The final concentration of rhodesain was 3 nM, and the substrate concentration was 2.5 μM. The cleavage of the substrate was followed by continuous reading for 5 min, and enzyme activity in the presence of 100 μM of each potential inhibitor was calculated based on initial velocity rates compared to DMSO controls. All compounds were tested in triplicate in three independent experiments.
# [3] = Table 6, plasma clearance corrected for the fraction unbound, IV
# [4] = mouse, 0.5 mg/kg, Table 6, male CD1 mice
# [5] = mouse, Table 6, IV 0.5 mg/kg, male CD1 mice
# [6] = mouse, Table 6, IV 0.5 mg/kg, male CD1 mice, read-out: AUC (ng*h/ml) IV
# [7] = mouse, Table 6, IV 0.5 mg/kg, male CD1 mice, read-out: T1/2 (h) IV (converted)
# [8] = mouse, Table 6, IV 0.5 mg/kg, male CD1 mice, read-out: V SS (L/kg) IV
# [9] = mouse, Table 6, PO 0.5 mg/kg, male CD1 mice
# [10] = mouse, Table 6, PO 0.5 mg/kg, male CD1 mice, read-out: AUC (ng*h/ml) PO
# [11] = mouse, Table 6, PO 0.5 mg/kg, male CD1 mice, read-out: T1/2 (h) PO (converted)
# [12] = Table S6, plasma clearance corrected for the fraction unbound
# [13] = male, CD1, mouse, 0.5 mg/kg, Table S6, IV, mice
# [14] = male, CD1, mouse, 0.5 mg/kg, Table S6, IV, mice, read-out: AUC (ng*h/mL) IV
# [15] = male, CD1, mouse, 0.5 mg/kg, Table S6, IV, mice, read-out: T1/2(h) IV (converted)
# [16] = male, CD1, mouse, 0.5 mg/kg, Table S6, IV, mice, read-out: VSS (L/kg) IV
# [17] = male, CD1, mouse, 0.5 mg/kg, Table S6, PO, mice
# [18] = male, CD1, mouse, 0.5 mg/kg, Table S6, PO, mice, read-out: AUC (ng*h/mL) PO
# [19] = male, CD1, mouse, 0.5 mg/kg, Table S6, mice
# [20] = male, CD1, mouse, 0.5 mg/kg, Table S6, PO, mice, read-out: T1/2 (h) PO (converted)
SMILES,"CLpu [1, 3] [mL/min/kg]","bioavailability [1, 4] [%]","C0 [1, 5] [ng/mL]","AUC [1, 6] [ng·h/mL]","half-life [1, 7] [h]","Vd [1, 8] [L/kg]","Cmax [1, 9] [ng/mL]","Tmax [1, 9] [min]","clearance [1, 5] [L/h/kg]","CLpu [1, 12] [mL/min/kg]","clearance [1, 13] [L/h/kg]","C0 [1, 13] [ng/mL]","AUC [1, 14] [ng·h/mL]","half-life [1, 15] [h]","Vd [1, 16] [L/kg]",further results
O=C(COc1ccc(Br)cc1)NCCc1nc2ccccc2[nH]1 [Compound 33],1010,35.2,658,160,0.2,0.6,71.7,18,9.5,–,–,–,–,–,–,"AUC [1, 10]: 56.5 ng·h/mL; half-life [1, 11]: 0.4 h"
N#Cc1ccccc1OCC(=O)NCCc1nc2ccccc2[nH]1 [Compound 31],498,–,232,67,0.2,1.9,12.8,18,4.6,–,–,–,–,–,–,–
CC(=O)Nc1cccc(OCC(=O)NCCc2nc3ccccc3[nH]2)c1 [Compound 3],–,–,–,–,–,–,–,–,–,242.5,2.31,12000,916,0.35,0.45,"Cmax [1, 17]: 9 ng/mL; Tmax [1, 17]: 26.4 min; AUC [1, 18]: 9.91 ng·h/mL; bioavailability [1, 19]: 1%; inhibition at 100 µM [2]: 41%"
COc1ccc2cc(OCC(=O)NCCc3nc4ccccc4[nH]3)ccc2c1 [Compound 12],–,–,–,–,–,–,–,–,–,–,–,–,–,–,–,inhibition at 100 µM [2]: 56%
C=CCCn1c(CCNC(=O)COc2ccccc2Cl)nc2ccccc21 [Compound 38],7175,–,126,82,0.4,3.3,2.5,18,6.2,–,–,–,–,–,–,–
O=C(COc1cccc([N+](=O)[O-])c1)NCCc1nc2ccccc2[nH]1 [Compound 8],–,–,–,–,–,–,–,–,–,396.2,3.31,925,322,0.21,1.04,"Cmax [1, 17]: 61 ng/mL; Tmax [1, 17]: 18.6 min; AUC [1, 18]: 44.6 ng·h/mL; half-life [1, 20]: 0.42 h; bioavailability [1, 19]: 14%"
O=C(COc1ccc2ccc(O)cc2c1)NCCc1nc2ccccc2[nH]1 [Compound 11],–,–,–,–,–,–,–,–,–,8011,12.9,400,77,0.13,1.92,inhibition at 100 µM [2]: 67%
Nc1cccc(OCC(=O)NCCc2nc3ccccc3[nH]2)c1 [Compound 9],–,–,–,–,–,–,–,–,–,–,–,–,–,–,–,inhibition at 100 µM [2]: 40%
O=C(CCc1ccccc1Br)NCCc1nc2ccccc2[nH]1 [Compound 36],3858,0,144,55,0.5,7.2,–,–,9.5,–,–,–,–,–,–,–
O=C(COc1ccccc1)NCCc1nc2ccccc2[nH]1 [Compound 1],–,–,–,–,–,–,–,–,–,289.8,4.01,988,250,0.21,1.02,"Cmax [1, 17]: 21 ng/mL; Tmax [1, 17]: 19.2 min; AUC [1, 18]: 22.5 ng·h/mL; half-life [1, 20]: 0.73 h; bioavailability [1, 19]: 9%"
Cc1ccccc1OCC(=O)NCCc1nc2ccccc2[nH]1 [Compound 17],1738,0,153,83,0.5,4.4,–,–,6.3,–,–,–,–,–,–,–
O=C(COc1ccc2cc(O)ccc2c1)NCCc1nc2ccccc2[nH]1 [Compound 10],–,–,–,–,–,–,–,–,–,314,6.52,660,156,0.14,1.21,"bioavailability [1, 19]: 0%; inhibition at 100 µM [2]: 60%"
O=C(COc1ccccc1[N+](=O)[O-])NCCc1nc2ccccc2[nH]1 [Compound 32],2623,1.9,220,53,0.2,2.5,–,18,5.9,–,–,–,–,–,–,"AUC [1, 10]: 1 ng·h/mL"
O=C(COc1ccccc1Br)NCCc1nc2ccccc2[nH]1 [Compound 18],1728,1.2,283,84,0.2,1.8,–,18,3.2,–,–,–,–,–,–,"AUC [1, 10]: 1 ng·h/mL"
O=C(COc1ccc2ccccc2c1)NCCc1nc2ccccc2[nH]1 [Compound 35],5577,2,228,86,0.2,2,3.7,18,5.8,–,–,–,–,–,–,"AUC [1, 10]: 1.7 ng·h/mL; half-life [1, 11]: 0.2 h"
CC(=O)Nc1ccc(OCC(=O)NCCc2nc3ccccc3[nH]2)cc1 [Compound 2],–,–,–,–,–,–,–,–,–,69.3,2.03,1040,506,0.63,1.03,"Cmax [1, 17]: 54 ng/mL; Tmax [1, 17]: 49.8 min; AUC [1, 18]: 125 ng·h/mL; half-life [1, 20]: 1.21 h; bioavailability [1, 19]: 25%"
O=C(COc1ccc2ccccc2c1Br)NCCc1nc2ccccc2[nH]1 [Compound 34],–,5.6,255,116,0.3,1.9,7.6,18,7.6,–,–,–,–,–,–,"CLpu (L/h/kg) [1, 3]: 2,874.7 L/h/kg; AUC [1, 10]: 6.5 ng·h/mL; half-life [1, 11]: 0.6 h"
Cc1ccccc1OCC(=O)NCCc1nc2ccccc2o1 [Compound 37],3118,–,169,53,0.2,2.4,14.6,18,9.5,–,–,–,–,–,–,–
